Test results: ChEMBL document CHEMBL1201862, “PubChem BioAssay data set” (2004)
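Interpolation was linear, between the two tested concentrations surrounding the appropriate level; five concentrations were tested over 48 hours in 96-well plates. GI50: concentration for 50% inhibition of growth.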 Activity calls are given as the source filed them. Rule as the data show it: active = GI50 up to about 1.1 µM and inactive = higher.

Tests used:
Experiment in all cases: growth of human tumour cells (NCI), 48 h
OVCAR-8 = test system: OVCAR-8
SNB-75 = test system: SNB-75
SK-OV-3 = test system: SK-OV-3
HOP-92 = test system: HOP-92
MOLT-4 = test system: MOLT-4
RXF 393 = test system: RXF 393
Malme-3M = test system: Malme-3M
K562 = test system: K562
COLO 205 = test system: COLO 205
UACC-62 = test system: UACC-62
SN12C = test system: SN12C
U-251 = test system: U-251
SK-MEL-2 = test system: SK-MEL-2
SK-MEL-5 = test system: SK-MEL-5
OVCAR-5 = test system: OVCAR-5
SW-620 = test system: SW-620
HCT-116 = test system: HCT-116
ACHN = test system: ACHN
SNB-19 = test system: SNB-19

Structure (SMILES)	GI50 (OVCAR-8)	GI50 (SNB-75)	GI50 (SK-OV-3)	GI50 (HOP-92)	GI50 (MOLT-4)	GI50 (RXF 393)	GI50 (Malme-3M)	GI50 (K562)	GI50 (COLO 205)	GI50 (UACC-62)	GI50 (SN12C)	GI50 (U-251)	GI50 (SK-MEL-2)	GI50 (SK-MEL-5)	GI50 (OVCAR-5)	GI50 (SW-620)	GI50 (HCT-116)	GI50 (ACHN)	GI50 (SNB-19)
O=C1c2ccccc2C2=Nc3ccncc3CN12	> 100 µM (inactive)	74.5 µM (inactive)	> 100 µM (inactive)	> 100 µM (inactive)	> 100 µM (inactive)	> 100 µM (inactive)	> 100 µM (inactive)	> 100 µM (inactive)	> 100 µM (inactive)	> 100 µM (inactive)	> 100 µM (inactive)	> 100 µM (inactive)	> 100 µM (inactive)	> 100 µM (inactive)	> 100 µM (inactive)	> 100 µM (inactive)	> 100 µM (inactive)	> 100 µM (inactive)	> 100 µM (inactive)
Cc1ccccc1Nc1nc2ccccc2nc1NS(=O)(=O)c1ccccc1	> 100 µM (inactive)	56.2 µM (inactive)	> 100 µM (inactive)	47.5 µM (inactive)	> 100 µM (inactive)	> 100 µM (inactive)	> 100 µM (inactive)	> 100 µM (inactive)	> 100 µM (inactive)	62.2 µM (inactive)	> 100 µM (inactive)	67.9 µM (inactive)	> 100 µM (inactive)	> 100 µM (inactive)	> 100 µM (inactive)	> 100 µM (inactive)	> 100 µM (inactive)	> 100 µM (inactive)	96.8 µM (inactive)
c1ccc(/C(=N/Nc2ccncn2)c2ccccn2)cc1	16.6 µM (inactive)	18.9 µM (inactive)	23.7 µM (inactive)	–	3.47 µM (inactive)	34.3 µM (inactive)	–	0.528 µM (active)	1.03 µM (active)	26.4 µM (inactive)	35 µM (inactive)	39.6 µM (inactive)	44.8 µM (inactive)	15.4 µM (inactive)	34.5 µM (inactive)	6.32 µM (inactive)	14.3 µM (inactive)	5.82 µM (inactive)	46.8 µM (inactive)
Cc1nc(N)sc1/N=N/c1cc(Cl)c([N+](=O)[O-])cc1Cl	14.6 µM (inactive)	< 0.01 µM (active)	74.6 µM (inactive)	–	8.24 µM (inactive)	34.4 µM (inactive)	12 µM (inactive)	13.1 µM (inactive)	31 µM (inactive)	16.4 µM (inactive)	17.6 µM (inactive)	16.3 µM (inactive)	22.8 µM (inactive)	4.22 µM (inactive)	31.3 µM (inactive)	16.4 µM (inactive)	33.6 µM (inactive)	20.4 µM (inactive)	29.1 µM (inactive)
COCOc1c(C(OCOC)c2cnc(Sc3ccccc3)n2C)ccc(OC)c1OC (stereo unspecified)	> 100 µM (inactive)	35.3 µM (inactive)	> 100 µM (inactive)	> 100 µM (inactive)	87.1 µM (inactive)	83.4 µM (inactive)	> 100 µM (inactive)	> 100 µM (inactive)	–	> 100 µM (inactive)	> 100 µM (inactive)	> 100 µM (inactive)	> 100 µM (inactive)	63.8 µM (inactive)	> 100 µM (inactive)	> 100 µM (inactive)	> 100 µM (inactive)	> 100 µM (inactive)	> 100 µM (inactive)
COc1ccc2cc(NC(=O)N/N=C\c3ccc(Cl)cc3)ccc2c1	96.8 µM (inactive)	72.3 µM (inactive)	> 100 µM (inactive)	> 100 µM (inactive)	> 100 µM (inactive)	–	34 µM (inactive)	> 100 µM (inactive)	> 100 µM (inactive)	40.3 µM (inactive)	> 100 µM (inactive)	41.2 µM (inactive)	> 100 µM (inactive)	–	> 100 µM (inactive)	> 100 µM (inactive)	> 100 µM (inactive)	> 100 µM (inactive)	46.2 µM (inactive)
COC(=O)C(=O)C(C#N)c1ccc(Cl)c(Cl)c1 (stereo unspecified)	–	80 µM (inactive)	> 100 µM (inactive)	> 100 µM (inactive)	> 100 µM (inactive)	–	> 100 µM (inactive)	> 100 µM (inactive)	–	> 100 µM (inactive)	> 100 µM (inactive)	> 100 µM (inactive)	> 100 µM (inactive)	> 100 µM (inactive)	–	> 100 µM (inactive)	> 100 µM (inactive)	> 100 µM (inactive)	–
COC(=O)/C(=N\N)C(C(=O)C(=O)Nc1cccc([N+](=O)[O-])c1)c1nc2ccc(C(=O)c3ccccc3)cc2nc1O (stereo unspecified)	> 100 µM (inactive)	> 100 µM (inactive)	93.8 µM (inactive)	35.7 µM (inactive)	15 µM (inactive)	16.9 µM (inactive)	–	–	> 100 µM (inactive)	96.2 µM (inactive)	> 100 µM (inactive)	> 100 µM (inactive)	> 100 µM (inactive)	71 µM (inactive)	> 100 µM (inactive)	> 100 µM (inactive)	> 100 µM (inactive)	> 100 µM (inactive)	> 100 µM (inactive)
COC(=O)NC(=O)c1cn(C2OC(CO)C(O)C2O)c(=O)[nH]c1=O (stereo unspecified)	> 100 µM (inactive)	> 100 µM (inactive)	> 100 µM (inactive)	> 100 µM (inactive)	> 100 µM (inactive)	–	> 100 µM (inactive)	> 100 µM (inactive)	> 100 µM (inactive)	> 100 µM (inactive)	> 100 µM (inactive)	> 100 µM (inactive)	> 100 µM (inactive)	–	> 100 µM (inactive)	> 100 µM (inactive)	> 100 µM (inactive)	> 100 µM (inactive)	> 100 µM (inactive)
Cc1cc(NS(=O)(=O)c2ccc(/N=N/c3c(O)c(C(=O)O)cc4ccccc34)cc2)nc(C)n1	> 100 µM (inactive)	> 100 µM (inactive)	> 100 µM (inactive)	> 100 µM (inactive)	> 100 µM (inactive)	> 100 µM (inactive)	> 100 µM (inactive)	> 100 µM (inactive)	> 100 µM (inactive)	> 100 µM (inactive)	–	> 100 µM (inactive)	> 100 µM (inactive)	> 100 µM (inactive)	> 100 µM (inactive)	> 100 µM (inactive)	> 100 µM (inactive)	> 100 µM (inactive)	> 100 µM (inactive)
COc1cc2c(cc1OC)C(=O)/C(=C/c1ccc([N+](=O)[O-])cc1)CC2	> 10 µM (inactive)	–	> 10 µM (inactive)	> 10 µM (inactive)	> 10 µM (inactive)	> 10 µM (inactive)	> 10 µM (inactive)	> 10 µM (inactive)	> 10 µM (inactive)	> 10 µM (inactive)	> 10 µM (inactive)	> 10 µM (inactive)	> 10 µM (inactive)	> 10 µM (inactive)	> 10 µM (inactive)	> 10 µM (inactive)	> 10 µM (inactive)	> 10 µM (inactive)	> 10 µM (inactive)
COC(=O)n1c(C)c(C=O)c2ccc(OC)cc21	81.7 µM (inactive)	31.3 µM (inactive)	33.8 µM (inactive)	–	42.2 µM (inactive)	30.6 µM (inactive)	99.8 µM (inactive)	38 µM (inactive)	46.9 µM (inactive)	21 µM (inactive)	55.6 µM (inactive)	–	33.2 µM (inactive)	21.6 µM (inactive)	54.7 µM (inactive)	–	34.8 µM (inactive)	33.1 µM (inactive)	42.7 µM (inactive)
COc1c(C)c(C/C=C(\C)CCCCO)c(OC)c2ccccc12	33.1 µM (inactive)	33 µM (inactive)	> 100 µM (inactive)	21.4 µM (inactive)	21.2 µM (inactive)	79.6 µM (inactive)	–	29.4 µM (inactive)	38.2 µM (inactive)	49.2 µM (inactive)	23.4 µM (inactive)	64.4 µM (inactive)	83.6 µM (inactive)	16.9 µM (inactive)	83.8 µM (inactive)	57.3 µM (inactive)	28.9 µM (inactive)	36.1 µM (inactive)	> 100 µM (inactive)
O/N=C1\CCc2nonc2\C1=N/Nc1ccccc1	> 100 µM (inactive)	> 100 µM (inactive)	> 100 µM (inactive)	> 100 µM (inactive)	> 100 µM (inactive)	> 100 µM (inactive)	> 100 µM (inactive)	> 100 µM (inactive)	> 100 µM (inactive)	> 100 µM (inactive)	> 100 µM (inactive)	> 100 µM (inactive)	> 100 µM (inactive)	> 100 µM (inactive)	> 100 µM (inactive)	> 100 µM (inactive)	> 100 µM (inactive)	43.7 µM (inactive)	> 100 µM (inactive)
O=C(CC1C(=O)Nc2ccccc2[S+]1[O-])Nc1ccc(Cl)cc1 (stereo unspecified)	32.7 µM (inactive)	29.4 µM (inactive)	30.1 µM (inactive)	29 µM (inactive)	50.2 µM (inactive)	–	98.2 µM (inactive)	> 100 µM (inactive)	> 100 µM (inactive)	37 µM (inactive)	72.4 µM (inactive)	35.7 µM (inactive)	> 100 µM (inactive)	–	> 100 µM (inactive)	> 100 µM (inactive)	–	79.3 µM (inactive)	93.3 µM (inactive)
Cc1cc(S(=O)(=O)Nc2nc3ccccc3c(=O)n2N)c(S)cc1Cl	30.2 µM (inactive)	–	32.3 µM (inactive)	–	47.6 µM (inactive)	–	23.1 µM (inactive)	47.2 µM (inactive)	> 100 µM (inactive)	20.7 µM (inactive)	44.5 µM (inactive)	23.1 µM (inactive)	29.3 µM (inactive)	29.6 µM (inactive)	55.5 µM (inactive)	59.8 µM (inactive)	32 µM (inactive)	33.6 µM (inactive)	–
